Data: patent US20230218632A1, “CYCLIC SULFONAMIDE DERIVATIVES AS TRAP1 MODULATORS AND USES THEREOF” (Amathus Therapeutics, Inc., priority 2020, published 2023)

Target: T1, TRAP1 enzyme (Homo sapiens, UniProt Q12931)
T1 sequence (Q12931 60-704): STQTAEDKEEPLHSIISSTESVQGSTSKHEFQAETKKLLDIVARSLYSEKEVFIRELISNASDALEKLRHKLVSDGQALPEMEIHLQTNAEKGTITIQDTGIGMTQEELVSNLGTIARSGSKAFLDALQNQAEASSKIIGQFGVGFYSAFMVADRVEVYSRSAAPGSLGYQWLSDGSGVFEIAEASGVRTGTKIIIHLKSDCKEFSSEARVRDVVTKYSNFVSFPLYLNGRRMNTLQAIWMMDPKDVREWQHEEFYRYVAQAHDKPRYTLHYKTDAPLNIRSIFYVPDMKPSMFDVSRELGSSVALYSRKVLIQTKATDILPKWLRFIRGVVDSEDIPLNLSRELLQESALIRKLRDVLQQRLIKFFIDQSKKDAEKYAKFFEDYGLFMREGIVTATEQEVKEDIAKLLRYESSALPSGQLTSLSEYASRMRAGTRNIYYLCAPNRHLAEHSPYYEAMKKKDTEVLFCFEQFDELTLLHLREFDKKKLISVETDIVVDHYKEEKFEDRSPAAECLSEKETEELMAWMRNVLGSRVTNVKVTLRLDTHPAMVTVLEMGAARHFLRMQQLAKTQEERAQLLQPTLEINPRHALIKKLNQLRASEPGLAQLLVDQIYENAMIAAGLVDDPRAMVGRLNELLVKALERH
Experiment: ADP Glo assay (ATPase activity of TRAP1)
Assay type: biochemical
Conditions: for EC50: 150 nM Trap1, 20 µM ATP, concentration for half maximal activation, read-out: ADP GLO DRC: GeoMean EC50; for Emax: maximal percent activation, read-out: ADP GLO DRC: Mean Emax
Method: Potency of test compounds to modulate the ATPase activity of TRAP1 enzyme was evaluated using ADP Glo assay. The assay is based on quantification of the ADP generated from ATP in the ATPase reaction. The assay is performed in two steps; first, after the ATPase reaction, an equal volume of ADP-Glo™ Reagent is added to terminate the ATPase reaction and deplete the remaining ATP. Second, the Kinase Detection Reagent is added to simultaneously convert ADP to ATP and allow the newly synthesized ATP to be measured using a luciferase/luciferin reaction.
All the assays were carried out in a 384-well Proxiplate. The buffer used was 25 mM Pipes pH-7.5, 40 mM KCl, 0.05 mM MgCl2, 0.025 % BSA, 0.316 mM EGTA, 0.003% Empigen, 0.01% Igepal. 150 nM Trap1 enzyme was incubated with various concentrations of the test compound (0.79 µM - 100 µM) at 37° C. for 30 mins (except in blank wells). 20 µM ATP was added to each well to start the reaction. The plate was spun for 1 min at 1200 rpm and then incubated at 37° C. for 60 mins. 5 µl of ADP Glo reagent was added to all the wells and spun the plate for 1 min at 1200 rpm and kept it on a shaker at ambient temperature for 60 mins. 10 µl of kinase detection mix was added to all the wells and the plate was read for Luminescence at 495 nm. The amount of ADP released was estimated from ATP/ADP standard curve generated at the same experimental conditions. Emax (Maximal percent activation) and EC50 (concentration for half maximal activation ) were estimated by fitting the dose response data to a sigmoidal curve fitting equation using Graphpad Prism software V. 8.

Compound | EC50 | Emax
Cc1ncccc1C(=O)Nc1ccc2c(c1)S(=O)(=O)N(c1ccc(C(F)(F)F)cc1)CCO2 [Compound 2286] | 30 to 100 µM | > 200%
O=C(Nc1ccc2c(c1)S(=O)(=O)N(c1ccc(C(F)(F)F)cc1)CCO2)c1cccnc1 [Compound 2240] | 30 to 100 µM | 150 to 200%
O=C(Nc1ccc2c(c1)S(=O)(=O)N(c1ccc(C(F)(F)F)cc1)CCO2)c1cccnn1 [Compound 2224] | 30 to 100 µM | 150 to 200%
O=C(Nc1ccc2c(c1)S(=O)(=O)N(c1ccc(C(F)(F)F)cc1)CCO2)c1cncs1 [Compound 2180] | 20 to 30 µM | 150 to 200%
Cc1nc(C)c(C(=O)Nc2ccc3c(c2)S(=O)(=O)N(c2ccc(C(F)(F)F)cc2)CCO3)s1 [Compound 2248] | 30 to 100 µM | 150 to 200%
COc1nccnc1C(=O)Nc1ccc2c(c1)S(=O)(=O)N(c1ccc(C(F)(F)F)cc1)CCO2 [Compound 2230] | 20 to 30 µM | 150 to 200%
CN1CCc2scc(C(=O)Nc3ccc4c(c3)S(=O)(=O)N(c3ccc(C(F)(F)F)cc3)CCO4)c2C1 [Compound 2472] | 30 to 100 µM | 150 to 200%
Cc1cnccc1C(=O)Nc1ccc2c(c1)S(=O)(=O)N(c1ccc(C(F)(F)F)cc1)CCO2 [Compound 2199] | 20 to 30 µM | 150 to 200%
COc1ccncc1C(=O)Nc1ccc2c(c1)S(=O)(=O)N(c1ccc(C(F)(F)F)cc1)CCO2 [Compound 2323] | 20 to 30 µM | 150 to 200%
Cc1ncc(C(=O)Nc2ccc3c(c2)S(=O)(=O)N(c2ccc(C(F)(F)F)cc2)CCO3)c(C)n1 [Compound 2236] | 30 to 100 µM | 150 to 200%
Cn1cc(C(=O)Nc2ccc3c(c2)S(=O)(=O)N(c2ccc(C(F)(F)F)cc2)CCO3)cn1 [Compound 2241] | 20 to 30 µM | 150 to 200%
Cn1cccc(C(=O)Nc2cnc3c(c2)S(=O)(=O)N(c2ccc(C(F)(F)F)cc2)CCO3)c1=O [Compound 2462] | 20 to 30 µM | 150 to 200%
Cc1ncn(C)c1C(=O)Nc1ccc2c(c1)S(=O)(=O)N(c1ccc(C(F)(F)F)cc1)CCO2 [Compound 2343] | 30 to 100 µM | 150 to 200%
Cc1ncoc1C(=O)Nc1ccc2c(c1)S(=O)(=O)N(c1ccc(Cl)cc1)CCO2 [Compound 1210, N-(2-(4-chlorophenyl)-1,1-Dioxido-3,4-Dihydro-2H-Benzo[b][1,4,5]Oxathiazepin-8-yl)-4-Methyloxazole-5-Carboxamide] | 30 to 100 µM | > 200%
CC(C)c1ncsc1C(=O)Nc1ccc2c(c1)S(=O)(=O)N(c1ccc(C(F)(F)F)cc1)CCO2 [Compound 2080, N-(1,1-Dioxido-2-(4-(Trifluoromethyl)Phenyl)-3,4-Dihydro-2H-Benzo[b][1,4,5]Oxathiazepin-8-yl)-4-Isopropylthiazole-5-Carboxamide] | 20 to 30 µM | 129 to 149%
Cc1nn(C)cc1C(=O)Nc1ccc2c(c1)S(=O)(=O)N(c1ccc(C(F)(F)F)cc1)CCO2 [Compound 2219] | 30 to 100 µM | > 200%
Cn1cnc(C(=O)Nc2ccc3c(c2)S(=O)(=O)N(c2ccc(C(F)(F)F)cc2)CCO3)c1 [Compound 2249] | 30 to 100 µM | 150 to 200%
Cc1ncoc1C(=O)Nc1ccc2c(c1)S(=O)(=O)N(c1ccc(C(F)(F)F)cc1)CCCO2 [Compound 1989, N-(1,1-Dioxido-2-(4-(Trifluoromethyl) Phenyl)-2,3,4,5-Tetrahydrobenzo[b][1,4,5]Oxathiazocin-9-yl)-4-Methyloxazole-5-Carboxamide] | 30 to 100 µM | > 200%
Cc1noc(C)c1C(=O)Nc1ccc2c(c1)S(=O)(=O)N(c1ccc(C(F)(F)F)cc1)CCO2 [Compound 2181] | < 20 µM | 129 to 149%
NCc1cccc(C(=O)Nc2ccc3c(c2)S(=O)(=O)N(c2ccc(C(F)(F)F)cc2)CCO3)n1 [Compound 2513] | 30 to 100 µM | > 200%
O=C(Nc1ccc2c(c1)S(=O)(=O)N(c1ccc(C(F)(F)F)cc1)CCO2)c1ccc(O)nc1 [Compound 2299] | 30 to 100 µM | > 200%
